Test results published in ChEMBL document CHEMBL4393657, “Tetrazole hybrids and their antifungal activities” (2019).
Values after ≈ are worked out from the molar mass of the structure shown.

Tests used:
Assay type in all cases: functional
Aspergillus niger [1] = assay: Antifungal activity against Aspergillus niger
Saccharomyces cerevisiae [2] = assay: Antifungal activity against Saccharomyces cerevisiae
Aspergillus fumigatus [3] = assay: Antifungal activity against Aspergillus fumigatus
Candida albicans [4] = assay: Antifungal activity against Candida albicans
Fusarium graminearum = assay: Antifungal activity against Gibberella zeae assessed as inhibition of growth at 50 ug/ml; settings: read-out: GI
Ceratobasidium cereale = assay: Antifungal activity against Rhizoctonia cerealis assessed as inhibition of growth at 50 ug/ml; settings: read-out: GI
Alternaria solani = assay: Antifungal activity against Alternaria solani assessed as inhibition of growth at 50 ug/ml; settings: read-out: GI
[5] = Antifungal activity against Pellicularia sasakii assessed as inhibition of growth at 50 ug/ml; settings: read-out: GI
Sclerotinia sclerotiorum = assay: Antifungal activity against Sclerotinia sclerotiorum assessed as inhibition of growth at 50 ug/ml; settings: read-out: GI
Phytophthora infestans = assay: Antifungal activity against Phytophthora infestans assessed as inhibition of growth at 50 ug/ml; settings: read-out: GI
Botrytis cinerea = assay: Antifungal activity against Botrytis cinerea assessed as inhibition of growth at 50 ug/ml; settings: read-out: GI
[6] = test system: Botryosphaeria berengeriana; assay: Antifungal activity against Physalospora pyricola assessed as inhibition of growth at 50 ug/ml; settings: read-out: GI
Mycosphaerella arachidis = assay: Antifungal activity against Cercospora arachidicola assessed as inhibition of growth at 50 ug/ml; settings: read-out: GI
Aspergillus fumigatus [7] = assay: Potency index, ratio for MIC of fluconazole to MIC of compound for antifungal activity against Aspergillus fumigatus
Aspergillus niger [8] = assay: Potency index, ratio for MIC of fluconazole to MIC of compound for antifungal activity against Aspergillus niger
Saccharomyces cerevisiae [9] = assay: Potency index, ratio for MIC of fluconazole to MIC of compound for antifungal activity against Saccharomyces cerevisiae
Candida albicans [10] = assay: Antifungal activity against Candida albicans NCCS 3471 assessed as inhibition zone at 10 ug/ml incubated for 3 to 4 days by disk diffusion method; settings: read-out: IZ
Candida tropicalis [11] = assay: Antifungal activity against Candida tropicalis by broth microdilution method
Aspergillus niger [12] = assay: Antifungal activity against Aspergillus niger assessed as inhibition zone at 50 ug/ml by disk diffusion method; settings: read-out: IZ
Candida albicans [13] = assay: Antifungal activity against Candida albicans NCCS 3471 assessed as inhibition zone at 50 ug/ml by disk diffusion method; settings: read-out: IZ
Nakaseomyces glabratus [14] = assay: Antifungal activity against Candida glabrata ATCC 36583 by broth microdilution method
Aspergillus fumigatus [15] = assay: Antifungal activity against Aspergillus fumigatus NCIM 902 assessed as inhibition zone at 10 ug/ml incubated for 3 to 4 days by disk diffusion method; settings: read-out: IZ
Candida albicans [16] = assay: Antifungal activity against Candida albicans assessed as reduction in fungal cell growth incubated for 48 hrs by broth microdilution susceptibility method
Aspergillus niger [17] = assay: Antifungal activity against Aspergillus niger assessed as reduction in fungal cell growth incubated for 48 hrs by broth microdilution method
Aspergillus flavus [18] = assay: Antifungal activity against Aspergillus flavus assessed as inhibition zone at 20 ug/ml by disk diffusion method; settings: read-out: IZ
Candida albicans [19] = assay: Antifungal activity against Candida albicans assessed as reduction in fungal cell growth incubated for 24 hrs by broth microdilution method
Nakaseomyces glabratus [20] = assay: Antifungal activity against Candida glabrata assessed as reduction in fungal cell growth incubated for 48 hrs by broth microdilution method
Aspergillus niger [21] = assay: Antifungal activity against Aspergillus niger assessed as inhibition zone at 100 ug/ml; settings: read-out: IZ
Pichia kudriavzevii [22] = assay: Antifungal activity against Candida krusei assessed as reduction in fungal cell growth incubated for 24 hrs by broth microdilution method
Candida tropicalis [23] = assay: Antifungal activity against Candida tropicalis assessed as reduction in fungal cell growth incubated for 24 hrs by broth microdilution method
Aspergillus niger [24] = assay: Antifungal activity against Aspergillus niger assessed as inhibition zone at 20 ug/ml by disk diffusion method; settings: read-out: IZ
Candida albicans [25] = assay: Antifungal activity against Candida albicans V-01-191A-261 assessed as reduction in fungal cell growth incubated for 48 hrs by broth microdilution method; settings: V-01-191A-261, 48 h
Candida albicans [26] = assay: Antifungal activity against Candida albicans TA
Aspergillus niger [27] = assay: Antifungal activity against Aspergillus niger assessed as reduction in fungal cell growth incubated for 48 hrs by broth microdilution susceptibility method
Cryptococcus neoformans = assay: Antifungal activity against Cryptococcus neoformans LA314 assessed as reduction in fungal cell growth incubated for 48 hrs by broth microdilution method; settings: LA314, 48 h
Candida albicans [28] = assay: In vivo antifungal activity against Candida albicans TA infected in CDF-1 mouse dosed orally assessed as survival of mouse; settings: po
Aspergillus fumigatus [29] = assay: Antifungal activity against Aspergillus fumigatus assessed as inhibition zone at 20 ug/ml by disk diffusion method; settings: read-out: IZ
Aspergillus fumigatus [30] = assay: Antifungal activity against Aspergillus fumigatus assessed as reduction in fungal cell growth incubated for 48 hrs by broth microdilution method
Nakaseomyces glabratus [31] = assay: Antifungal activity against Candida glabrata assessed as reduction in fungal cell growth incubated for 24 hrs by broth microdilution method
Candida albicans [32] = assay: Antifungal activity against Candida albicans assessed as inhibition zone at 20 ug/ml by disk diffusion method; settings: read-out: IZ
Aspergillus flavus [33] = assay: Antifungal activity against Aspergillus flavus assessed as reduction in fungal cell growth incubated for 24 and 72 hrs by cup plate method
Aspergillus niger [34] = assay: Antifungal activity against Aspergillus niger assessed as reduction in fungal cell growth incubated for 72 hrs by broth microdilution method
Pichia kudriavzevii [35] = assay: Antifungal activity against Candida krusei assessed as reduction in fungal cell growth incubated for 48 hrs by broth microdilution method
Candida tropicalis [36] = assay: Antifungal activity against Candida tropicalis assessed as reduction in fungal cell growth incubated for 48 hrs by broth microdilution method
Candida parapsilosis = assay: Antifungal activity against Candida parapsilosis ATCC 22019 assessed as reduction in fungal cell growth incubated for 48 hrs by broth microdilution method; settings: Lodderomyces parapsilosis, ATCC 22019, 48 h
Candida albicans [37] = assay: Antifungal activity against Candida albicans assessed as reduction in fungal cell growth incubated for 24 and 72 hrs by cup plate method
Candida albicans [38] = assay: Antifungal activity against Candida albicans assessed as inhibition zone at 125 ug/ml by disk diffusion method; settings: read-out: IZ
Candida albicans [39] = assay: Antifungal activity against Candida albicans assessed as inhibition zone at 100 ug/ml; settings: read-out: IZ

O=C(/C=C/c1ccc([N+](=O)[O-])cc1)c1ccc(-n2nnnc2-c2nc(-c3nnnn3-c3ccc(C(=O)/C=C/c4ccc([N+](=O)[O-])cc4)cc3)nc(-c3nnnn3-c3ccc(C(=O)/C=C/c4ccc([N+](=O)[O-])cc4)cc3)n2)cc1
MIC (Aspergillus niger [1]): < 2.5 µg/mL
MIC (Saccharomyces cerevisiae [2]): < 2.5 µg/mL
MIC (Aspergillus fumigatus [3]): < 2.5 µg/mL
MIC (Candida albicans [4]): < 2.5 µg/mL

Cc1snnc1C(Nc1ccc([N+](=O)[O-])cc1)c1nnnn1C1CCCCC1 (centres undefined)
inhibition of growth at 50 µg/mL (Fusarium graminearum): 20 to 65.4%
inhibition of growth at 50 µg/mL (Ceratobasidium cereale): 20 to 65.4%
inhibition of growth at 50 µg/mL (Alternaria solani): 20 to 65.4%
inhibition of growth at 50 µg/mL [5]: 20 to 65.4%
inhibition of growth at 50 µg/mL (Sclerotinia sclerotiorum): 20 to 65.4%
inhibition of growth at 50 µg/mL (Phytophthora infestans): 20 to 65.4%
inhibition of growth at 50 µg/mL (Botrytis cinerea): 20 to 65.4%
inhibition of growth at 50 µg/mL [6]: 20 to 65.4%
inhibition of growth at 50 µg/mL (Mycosphaerella arachidis): 20 to 65.4%

Nc1nc(-c2ccc(-n3cnnn3)cc2)cc(-c2ccc(OC(F)F)c(O)c2)n1
Ratio (Aspergillus fumigatus [7]): >=2
Ratio (Aspergillus niger [8]): >=2
Ratio (Saccharomyces cerevisiae [9]): >=2

CC(=O)N1CCN(c2ccc(OCC3COC(Cn4ccnc4)(c4ccc(Cl)cc4Cl)O3)cc2)CC1 (centres undefined) [KETOCONAZOLE]
zone of inhibition at 10 µg/mL (Candida albicans [10]): 24 mm
MIC (Candida tropicalis [11]): 25 to 50 µg/mL (≈ 47 to 94.1 µM)
zone of inhibition at 50 µg/mL (Aspergillus niger [12]): 23 mm
zone of inhibition at 50 µg/mL (Candida albicans [13]): 26 mm
MIC (Nakaseomyces glabratus [14]): 25 to 50 µg/mL (≈ 47 to 94.1 µM)
zone of inhibition at 10 µg/mL (Aspergillus fumigatus [15]): 23 mm
MIC (Candida albicans [4]): 25 to 50 µg/mL (≈ 47 to 94.1 µM)

OC(Cn1cncn1)(Cn1cncn1)c1ccc(F)cc1F [FLUCONAZOLE]
MIC (Candida albicans [16]): 6.25 µg/mL (≈ 20.4 µM)
MIC (Aspergillus niger [17]): 0.625 to 6.25 µg/mL (≈ 2.04 to 20.4 µM)
zone of inhibition at 20 µg/mL (Aspergillus flavus [18]): 19 to 22 mm
MIC (Candida albicans [19]): 1 to 4 µg/mL (≈ 3.27 to 13.1 µM)
MIC (Nakaseomyces glabratus [20]): 2 to 8 µg/mL (≈ 6.53 to 26.1 µM)
zone of inhibition at 100 µg/mL (Aspergillus niger [21]): 22 to 25 mm
MIC (Pichia kudriavzevii [22]): 1 to 4 µg/mL (≈ 3.27 to 13.1 µM)
MIC (Candida tropicalis [23]): 1 to 4 µg/mL (≈ 3.27 to 13.1 µM)
zone of inhibition at 20 µg/mL (Aspergillus niger [24]): 19 to 22 mm
MIC (Candida albicans [25]): 2 to 8 µg/mL (≈ 6.53 to 26.1 µM)
MIC (Candida albicans [26]): 100 µg/mL (≈ 327 µM)
MIC (Aspergillus niger [27]): 6.25 µg/mL (≈ 20.4 µM)
MIC (Cryptococcus neoformans): 2 to 8 µg/mL (≈ 6.53 to 26.1 µM)
ED50 (Candida albicans [28]): 0.29 to 0.35 mg/kg
zone of inhibition at 20 µg/mL (Aspergillus fumigatus [29]): 19 to 22 mm
MIC (Aspergillus fumigatus [30]): 2.5 µg/mL (≈ 8.16 µM)
MIC (Nakaseomyces glabratus [31]): 1 to 4 µg/mL (≈ 3.27 to 13.1 µM)
zone of inhibition at 20 µg/mL (Candida albicans [32]): 19 to 22 mm
MIC (Aspergillus flavus [33]): 25 µg/mL (≈ 81.6 µM)
MIC (Aspergillus niger [34]): 2 to 8 µg/mL (≈ 6.53 to 26.1 µM)
MIC (Pichia kudriavzevii [35]): 2 to 8 µg/mL (≈ 6.53 to 26.1 µM)
MIC (Candida tropicalis [36]): 2 to 8 µg/mL (≈ 6.53 to 26.1 µM)
MIC (Candida parapsilosis): 2 to 8 µg/mL (≈ 6.53 to 26.1 µM)
MIC (Candida albicans [37]): 25 µg/mL (≈ 81.6 µM)
zone of inhibition at 125 µg/mL (Candida albicans [38]): 14 mm
zone of inhibition at 100 µg/mL (Candida albicans [39]): 22 to 25 mm
